# Measurements from patent US20060252807A1, “Novel ortho-terphenyl inhibitors of p38 kinase and methods of treating inflammatory disorders” (Kalypsys, Inc., priority 2005, published 2006).
# pIC50: −log10 of the molar value.
# Biological target: T1, active p38 alpha enzyme (Upstate Biotechnology) (Homo sapiens, UniProt Q16539)
# T1 construct: purchased Upstate Biotechnology
# Assay: p38α biochemical assay (ATP turnover, luminescent detection, Cambrex PKlight)
# Details: p38α kinase; Table 1 Biological Activity
# How it was run: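 Measures total ATP turnover by luminescence after human p38α phosphorylates full MapkapK2 protein. Final ATP is 1.4 uM, and incubation runs 2 hours at 30C. The buffer includes 100 mM MgCl2, 4 mM CaCl2 and 1 mg/ml BSA.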
# T1 sequence (Q16539 whole entry): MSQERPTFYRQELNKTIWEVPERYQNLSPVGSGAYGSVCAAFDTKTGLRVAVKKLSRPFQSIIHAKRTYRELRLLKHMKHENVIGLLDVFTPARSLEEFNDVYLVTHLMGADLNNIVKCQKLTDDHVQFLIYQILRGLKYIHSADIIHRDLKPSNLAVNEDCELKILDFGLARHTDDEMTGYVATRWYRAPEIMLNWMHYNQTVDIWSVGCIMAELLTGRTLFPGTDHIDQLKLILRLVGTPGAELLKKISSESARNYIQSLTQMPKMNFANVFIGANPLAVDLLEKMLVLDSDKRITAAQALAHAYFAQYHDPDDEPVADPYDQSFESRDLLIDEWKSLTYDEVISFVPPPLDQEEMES
row,pIC50,SMILES
1,< 6.00,CCC(C)CNC(=O)c1csc(-c2sc(C)nc2-c2ccc(F)cc2)n1 (stereo not drawn) [Example 1723]
2,< 6.00,Cc1nc(-c2ccc(F)cc2)c(-c2nc(C(=O)NC(C)C(C)C)cs2)s1 (stereo not drawn) [Example 1724]
3,≥ 6.00,Cc1nc(-c2ccc(F)cc2)c(-c2nc(C(=O)NCCC(C)C)cs2)s1 [Example 1725]
4,< 6.00,Cc1nc(-c2ccc(F)cc2)c(-c2nc(C(=O)NCCN(C)C)cs2)s1 [Example 1726]
5,≥ 6.00,COCC(C)NC(=O)c1csc(-c2sc(C)nc2-c2ccc(F)cc2)n1 (stereo not drawn) [Example 1727]
6,≥ 6.00,CCC(CO)NC(=O)c1csc(-c2sc(C)nc2-c2ccc(F)cc2)n1 (stereo not drawn) [Example 1728]
7,≥ 6.00,CCC(CO)NC(=O)c1csc(-c2sc(C)nc2-c2ccc(F)cc2)n1 (stereo not drawn) [Example 1729]
8,≥ 6.00,Cc1nc(-c2ccc(F)cc2)c(-c2nc(C(=O)NCCCCO)cs2)s1 [Example 1730]
9,≥ 6.00,Cc1nc(-c2ccc(F)cc2)c(-c2nc(C(=O)NCc3ccco3)cs2)s1 [Example 1731]
10,≥ 6.00,Cc1nc(-c2ccc(F)cc2)c(-c2nc(C(=O)NC3CCCCC3)cs2)s1 [Example 1732]
11,≥ 6.00,Cc1nc(-c2ccc(F)cc2)c(-c2nc(C(=O)NCC3CCCO3)cs2)s1 (stereo not drawn) [Example 1733]
12,< 6.00,Cc1nc(-c2ccc(F)cc2)c(-c2nc(C(=O)NCCC(C)(C)C)cs2)s1 [Example 1734]
13,< 6.00,Cc1nc(-c2ccc(F)cc2)c(-c2nc(C(=O)NC(C)CC(C)C)cs2)s1 (stereo not drawn) [Example 1735]
14,< 6.00,Cc1nc(-c2ccc(F)cc2)c(-c2nc(C(=O)NC3CONC3=O)cs2)s1 (stereo not drawn) [Example 1736]
15,< 6.00,Cc1nc(-c2ccc(F)cc2)c(-c2nc(C(=O)NN3CCOCC3)cs2)s1 [Example 1737]
16,≥ 6.00,Cc1nc(-c2ccc(F)cc2)c(-c2nc(C(=O)NC(CO)C(C)C)cs2)s1 (stereo not drawn) [Example 1738]
17,≥ 6.00,Cc1nc(-c2ccc(F)cc2)c(-c2nc(C(=O)NCc3ccccc3)cs2)s1 [Example 1739]
18,≥ 6.00,Cc1nc(-c2ccc(F)cc2)c(-c2nc(C(=O)NCc3cccnc3)cs2)s1 [Example 1740]
19,≥ 6.00,Cc1nc(-c2ccc(F)cc2)c(-c2nc(C(=O)NCc3ccccn3)cs2)s1 [Example 1741]
20,≥ 6.00,Cc1nc(-c2ccc(F)cc2)c(-c2nc(C(=O)NCc3ccncc3)cs2)s1 [Example 1742]
21,≥ 6.00,Cc1nc(-c2ccc(F)cc2)c(-c2nc(C(=O)NCc3cccs3)cs2)s1 [Example 1743]

row,pIC50,SMILES
1,≥ 6.00,Cc1nc(-c2ccc(F)cc2)c(-c2nc(C(=O)NC3CCC(C)CC3)cs2)s1 (stereo not drawn) [Example 1744]
2,≥ 6.00,Cc1nc(-c2ccc(F)cc2)c(-c2nc(C(=O)NCC3CCCCC3)cs2)s1 [Example 1745]
3,≥ 6.00,Cc1nc(-c2ccc(F)cc2)c(-c2nc(C(=O)NC3CCCCCC3)cs2)s1 [Example 1746]
4,≥ 6.00,Cc1nc(-c2ccc(F)cc2)c(-c2nc(C(=O)NC3CCCCC3C)cs2)s1 (stereo not drawn) [Example 1747]
5,≥ 6.00,Cc1nc(-c2ccc(F)cc2)c(-c2nc(C(=O)NCCN3CCCC3)cs2)s1 [Example 1748]
6,< 6.00,Cc1nc(-c2ccc(F)cc2)c(-c2nc(C(=O)NN3CCN(C)CC3)cs2)s1 [Example 1749]
7,≥ 6.00,CCN(CC)CCNC(=O)c1csc(-c2sc(C)nc2-c2ccc(F)cc2)n1 [Example 1750]
8,≥ 6.00,Cc1cccc(CNC(=O)c2csc(-c3sc(C)nc3-c3ccc(F)cc3)n2)c1 [Example 1751]
9,≥ 6.00,Cc1nc(-c2ccc(F)cc2)c(-c2nc(C(=O)N[C@@H](C)c3ccccc3)cs2)s1 [Example 1752]
10,≥ 6.00,Cc1nc(-c2ccc(F)cc2)c(-c2nc(C(=O)N[C@H](C)c3ccccc3)cs2)s1 [Example 1753]
11,≥ 6.00,Cc1nc(-c2ccc(F)cc2)c(-c2nc(C(=O)NCCc3ccccc3)cs2)s1 [Example 1754]
12,≥ 6.00,Cc1nc(-c2ccc(F)cc2)c(-c2nc(C(=O)NCc3ccccc3C)cs2)s1 [Example 1755]
13,≥ 6.00,Cc1ccc(CNC(=O)c2csc(-c3sc(C)nc3-c3ccc(F)cc3)n2)cc1 [Example 1756]
14,≥ 6.00,Cc1cnc(CNC(=O)c2csc(-c3sc(C)nc3-c3ccc(F)cc3)n2)cn1 [Example 1757]
15,≥ 6.00,Cc1nc(-c2ccc(F)cc2)c(-c2nc(C(=O)NCc3cccc(F)c3)cs2)s1 [Example 1758]
16,≥ 6.00,Cc1nc(-c2ccc(F)cc2)c(-c2nc(C(=O)NCc3ccc(F)cc3)cs2)s1 [Example 1759]
17,≥ 6.00,Cc1nc(-c2ccc(F)cc2)c(-c2nc(C(=O)NCc3ccccc3F)cs2)s1 [Example 1760]
18,≥ 6.00,Cc1nc(-c2ccc(F)cc2)c(-c2nc(C(=O)NCCCn3ccnc3)cs2)s1 [Example 1761]
19,< 6.00,Cc1nc(-c2ccc(F)cc2)c(-c2nc(C(=O)NCCC3CCCN3C)cs2)s1 (stereo not drawn) [Example 1762]
20,< 6.00,Cc1nc(-c2ccc(F)cc2)c(-c2nc(C(=O)NCCN3CCCCC3)cs2)s1 [Example 1763]
21,< 6.00,Cc1nc(-c2ccc(F)cc2)c(-c2nc(C(=O)NC(C)CCCC(C)C)cs2)s1 (stereo not drawn) [Example 1764]

row,pIC50,SMILES
1,< 6.00,Cc1nc(-c2ccc(F)cc2)c(-c2nc(C(=O)NCCN3CCOCC3)cs2)s1 [Example 1765]
2,≥ 6.00,CCOC(=O)CC(C)NC(=O)c1csc(-c2sc(C)nc2-c2ccc(F)cc2)n1 (stereo not drawn) [Example 1766]
3,< 6.00,Cc1nc(-c2ccc(F)cc2)c(-c2nc(C(=O)NC3CCc4ccccc43)cs2)s1 (stereo not drawn) [Example 1767]
4,< 6.00,Cc1ccc(CCNC(=O)c2csc(-c3sc(C)nc3-c3ccc(F)cc3)n2)cc1 [Example 1768]
5,< 6.00,Cc1ccc(C)c(CNC(=O)c2csc(-c3sc(C)nc3-c3ccc(F)cc3)n2)c1 [Example 1769]
6,< 6.00,Cc1ccc([C@H](C)NC(=O)c2csc(-c3sc(C)nc3-c3ccc(F)cc3)n2)cc1 [Example 1770]
7,< 6.00,Cc1ccc([C@@H](C)NC(=O)c2csc(-c3sc(C)nc3-c3ccc(F)cc3)n2)cc1 [Example 1771]
8,≥ 6.00,Cc1nc(-c2ccc(F)cc2)c(-c2nc(C(=O)NCC(C)c3ccccc3)cs2)s1 (stereo not drawn) [Example 1772]
9,< 6.00,Cc1nc(-c2ccc(F)cc2)c(-c2nc(C(=O)NCC(C)c3ccccc3)cs2)s1 (stereo not drawn) [Example 1773]
10,< 6.00,Cc1nc(-c2ccc(F)cc2)c(-c2nc(C(=O)NCCCc3ccccc3)cs2)s1 [Example 1774]
11,≥ 6.00,Cc1nc(-c2ccc(F)cc2)c(-c2nc(C(=O)NCc3ccc(C)c(C)c3)cs2)s1 [Example 1775]
12,< 6.00,Cc1nc(-c2ccc(F)cc2)c(-c2nc(C(=O)NC(C)Cc3ccncc3)cs2)s1 (stereo not drawn) [Example 1776]
13,≥ 6.00,Cc1nc(-c2ccc(F)cc2)c(-c2nc(C(=O)NCCc3ccc(O)cc3)cs2)s1 [Example 1777]
14,≥ 6.00,Cc1nc(-c2ccc(F)cc2)c(-c2nc(C(=O)NCCOc3ccccc3)cs2)s1 [Example 1778]
15,≥ 6.00,COc1ccccc1CNC(=O)c1csc(-c2sc(C)nc2-c2ccc(F)cc2)n1 [Example 1779]
16,≥ 6.00,COc1ccc(CNC(=O)c2csc(-c3sc(C)nc3-c3ccc(F)cc3)n2)cc1 [Example 1780]
17,≥ 6.00,COc1cccc(CNC(=O)c2csc(-c3sc(C)nc3-c3ccc(F)cc3)n2)c1 [Example 1781]
18,< 6.00,Cc1nc(-c2ccc(F)cc2)c(-c2nc(C(=O)NCCc3ccc(F)cc3)cs2)s1 [Example 1782]
19,≥ 6.00,Cc1nc(-c2ccc(F)cc2)c(-c2nc(C(=O)NCCc3ccccc3F)cs2)s1 [Example 1783]
20,≥ 6.00,Cc1nc(-c2ccc(F)cc2)c(-c2nc(C(=O)NCCc3cccc(F)c3)cs2)s1 [Example 1784]
21,≥ 6.00,Cc1nc(-c2ccc(F)cc2)c(-c2nc(C(=O)NCc3cccc(Cl)c3)cs2)s1 [Example 1785]

row,pIC50,SMILES
1,≥ 6.00,Cc1nc(-c2ccc(F)cc2)c(-c2nc(C(=O)NCc3ccccc3Cl)cs2)s1 [Example 1786]
2,≥ 6.00,Cc1nc(-c2ccc(F)cc2)c(-c2nc(C(=O)NCc3ccc(Cl)cc3)cs2)s1 [Example 1787]
3,≥ 6.00,Cc1nc(-c2ccc(F)cc2)c(-c2nc(C(=O)NCCCN3CCCC3=O)cs2)s1 [Example 1788]
4,≥ 6.00,Cc1nc(-c2ccc(F)cc2)c(-c2nc(C(=O)NCc3ccc(F)cc3F)cs2)s1 [Example 1789]
5,≥ 6.00,Cc1nc(-c2ccc(F)cc2)c(-c2nc(C(=O)NCc3ccc(F)c(F)c3)cs2)s1 [Example 1790]
6,≥ 6.00,Cc1nc(-c2ccc(F)cc2)c(-c2nc(C(=O)NCc3cc(F)cc(F)c3)cs2)s1 [Example 1791]
7,≥ 6.00,Cc1nc(-c2ccc(F)cc2)c(-c2nc(C(=O)NCCCN3CCOCC3)cs2)s1 [Example 1792]
8,< 6.00,Cc1nc(-c2ccc(F)cc2)c(-c2nc(C(=O)NCCN(C(C)C)C(C)C)cs2)s1 [Example 1793]
9,< 6.00,Cc1nc(-c2ccc(F)cc2)c(-c2nc(C(=O)NC(C)CCc3ccccc3)cs2)s1 (stereo not drawn) [Example 1794]
10,< 6.00,Cc1nc(-c2ccc(F)cc2)c(-c2nc(C(=O)NCc3ccc(C(C)C)cc3)cs2)s1 [Example 1795]
11,≥ 6.00,Cc1nc(-c2ccc(F)cc2)c(-c2nc(C(=O)NCc3ccc4c(c3)OCO4)cs2)s1 [Example 1796]
12,≥ 6.00,COc1cccc(CCNC(=O)c2csc(-c3sc(C)nc3-c3ccc(F)cc3)n2)c1 [Example 1797]
13,≥ 6.00,Cc1nc(-c2ccc(F)cc2)c(-c2nc(C(=O)N[C@H](CO)Cc3ccccc3)cs2)s1 [Example 1798]
14,≥ 6.00,COc1ccc(CCNC(=O)c2csc(-c3sc(C)nc3-c3ccc(F)cc3)n2)cc1 [Example 1799]
15,≥ 6.00,COc1ccccc1CCNC(=O)c1csc(-c2sc(C)nc2-c2ccc(F)cc2)n1 [Example 1800]
16,≥ 6.00,CCOc1ccccc1CNC(=O)c1csc(-c2sc(C)nc2-c2ccc(F)cc2)n1 [Example 1801]
17,≥ 6.00,Cc1nc(-c2ccc(F)cc2)c(-c2nc(C(=O)NCCc3ccccc3Cl)cs2)s1 [Example 1802]
18,≥ 6.00,Cc1nc(-c2ccc(F)cc2)c(-c2nc(C(=O)NCCc3ccc(Cl)cc3)cs2)s1 [Example 1803]
